Measurements from patent publication US20230250109A1, “MACROCYCLIC ETHER CONTAINING INDOLE DERIVATIVES AS INHIBITORS OF MCL-1” (Janssen Pharmaceutica NV, priority 2020, published 2023).
pKi: −log10 of the molar value. Where two headings read alike, the source gives them in different places.

Legend:
[1] = tested on: MOLP-8 human multiple myeloma cell line; assay: Caspase-Glo 3/7 apoptosis induction assay in MOLP-8 cells; format: cell-based; settings: 2 hours at 37° C., caspase-3/7 luminescence, averaged over all runs on all batches, read-out: MOLP8 Caspase-Glo AC50
Description: MCL-1 is a regulator of apoptosis and is highly over-expressed in tumor cells that escape cell death. The assay evaluates the cellular potency of small-molecule compounds targeting regulators of the apoptosis pathway, primarily MCL-1, Bfl-1, Bcl-2, and other proteins of the Bcl-2 family. Protein-protein inhibitors disrupting the interaction of anti-apoptotic regulators with BH3-domain proteins initiate apoptosis.
The Caspase-Glo® 3/7 Assay is a luminescent assay that measures caspase-3 and -7 activities in purified enzyme preparations or cultures of adherent or suspension cells. The assay provides a proluminescent caspase-3/7 substrate, which contains the tetrapeptide sequence DEVD. This substrate is cleaved to release aminoluciferin, a substrate of luciferase used in the production of light. Addition of the single Caspase-Glo® 3/7 Reagent in an “add-mix-measure” format results in cell lysis, followed by caspase cleavage of the substrate and generation of a “glow-type” luminescent signal. This assay uses the MOLP-8 human multiple myeloma cell line, which is sensitive to MCL-1 inhibition.
• Perkin Elmer Envision • Multidrop 384 and small volume dispensing cassettes • Centrifuge • Countess automated cell counter • Countess counting chamber slides • Assay plate: ProxiPlate-384 Plus, White 384-shallow well Microplate • Sealing tape: Topseal A plus • T175 culture flask
Cell cultures were maintained between 0.2 and 2.0×10^6 cells/mL. The cells were harvested by collection in 50 mL conical tubes. The cells were then pelleted at 500 g for 5 mins before removing supernatant and resuspension in fresh pre-warmed culture medium. The cells were counted and diluted as needed.
The assay reagent was prepared by transferring the buffer solution to the substrate vial and mixing. The solution may be stored for up to 1 week at 4° C. with negligible loss of signal.
Compounds were delivered in assay-ready plates (Proxiplate) and stored at −20° C. Assays always include 1 reference compound plate containing reference compounds. The plates were spotted with 40 nL of compounds (0.5% DMSO final in cells; serial dilution; […] highest conc. 1/3 dilution, 10 doses, duplicates). The compounds were used at room temperature and 4 μL of pre-warmed media was added to all wells except column 2 and 23. The negative control was prepared by adding 1% DMSO in media. The positive control was prepared by adding the appropriate positive control compound in final concentration of […] in media. The plate was prepared by adding 4 μL negative control to column 23, 4 μL positive control to column 2 and 4 μL cell suspension to all wells in the plate. The plate with cells was then incubated at 37° C. for 2 hours. The assay signal reagent is the Caspase-Glo solution described above, and 8 μL was added to all wells. The plates were then sealed and measured after 30 minutes.
The activity of a test compound was calculated as percent change in apoptosis induction as follows: […]

[2] = molecular target: Myeloid Cell Leukemia 1 (Mcl-1) (Homo sapiens, UniProt Q07820); assay: Terbium labeled Mcl-1 HTRF binding assay (displacement of Cy5-labeled BIM BH3 peptide); settings: 25 pM Tb-Mcl-1, 8 nM Cy5 Bim peptide, Ki=IC50/(1+[L]/Kd), [L]=8 nM, Kd=10 nM, 60 min at room temperature, read-out: Tb-MCL1 Ki
Myeloid Cell Leukemia 1 (Mcl-1), sequence (Q07820 whole entry): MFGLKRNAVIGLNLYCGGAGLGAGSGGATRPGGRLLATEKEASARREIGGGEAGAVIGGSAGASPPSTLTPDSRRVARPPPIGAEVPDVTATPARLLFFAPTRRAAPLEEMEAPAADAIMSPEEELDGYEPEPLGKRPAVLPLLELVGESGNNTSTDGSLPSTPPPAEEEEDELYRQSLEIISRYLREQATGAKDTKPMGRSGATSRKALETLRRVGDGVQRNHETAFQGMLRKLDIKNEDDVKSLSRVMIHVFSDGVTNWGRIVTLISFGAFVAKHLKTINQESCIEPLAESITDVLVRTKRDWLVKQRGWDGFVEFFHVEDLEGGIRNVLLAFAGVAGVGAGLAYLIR
Experimental: Terbium labeled Myeloid Cell Leukemia 1 (Mcl-1) homogeneous time-resolved fluorescence (HTRF) binding assay utilizing the BIM BH3 peptide (H2N—(C/Cy5Mal) WIAQELRRIGDEFN-OH) as the binding partner for Mcl-1.
This assay evaluated inhibition of the BH3 domain: Mcl-1 interaction by measuring the displacement of Cy5-labeled BIM BH3 peptide (H2N—(C/Cy5Mal) WIAQELRRIGDEFN-OH) in the HTRF assay format.
The following assay and stock buffers were prepared for use in the assay: (a) Stock buffer: 10 mM Tris-HCl, pH=7.5+150 mM NaCl, filtered, sterilized, and stored at 4° C.; and (b) 1× assay buffer, where the following ingredients were added fresh to stock buffer: 2 mM dithiothreitol (DTT), 0.0025% Tween-20, 0.1 mg/mL bovine serum albumin (BSA). The 1×Tb-Mcl-1+Cy5 Bim peptide solution was prepared by diluting the protein stock solution using the 1×assay buffer (b) to 25 pM Tb-Mcl-1 and 8 nM Cy5 Bim peptide.
Using the Acoustic ECHO, 100 nL of 100×test compound(s) were dispensed into individual wells of a white 384-well Perkin Elmer Proxiplate, for a final compound concentration of 1×and final DMSO concentration of 1%. Inhibitor control and neutral control (NC, 100 nL of 100% DMSO) were stamped into columns 23 and 24 of assay plate, respectively. Into each well of the plate was then dispensed 10 μL of the 1× Tb-Mcl-1+Cy5 Bim peptide solution. The plate was centrifuged with a cover plate at 1000 rpm for 1 minute, then incubated for 60 minutes at room temperature with plates covered. The TR-FRET signal was read on an BMG PHERAStar FSX MicroPlate Reader at room temperature using the HTRF optic module (HTRF: excitation: 337 nm, light source: laser, emission A: 665 nm, emission B: 620 nm, integration start: 60 μs, integration time: 400 μs).
The BMG PHERAStar FSX MicroPlate Reader was used to measure fluorescence intensity at two emission wavelengths—665 nm and 620 nm—and report relative fluorescence units (RFU) for both emissions, as well as a ratio of the emissions (665 nm/620 nm)*10,000. The RFU values were normalized to percent inhibition as follows:
35% inhibition=(((NC−IC)−(compound−IC))/(NC−IC))*100
where IC (inhibitor control, low signal)=mean signal of 1× Tb-MCl-1+Cy5 Bim peptide+ inhibitor control or 100% inhibition of Mcl-1; NC (neutral control, high signal)=mean signal 1× Tb-MCl-1+Cy5 Bim peptide with DMSO only or 0% inhibition An 11-point dose response curve was generated to determine IC50 values (using GenData) based on the following equation:
Y=Bottom+(Top−Bottom)/(1+10^((log IC50−X)*HillSlope))
where Y=% inhibition in the presence of X inhibitor concentration; Top=100% inhibition derived from the IC (mean signal of Mcl-1+ inhibitor control); Bottom=0% inhibition derived from the NC (mean signal of Mcl-1+ DMSO); Hillslope=Hill coefficient; and IC50=concentration of compound with 50% inhibition in relation to top/neutral control (NC).

| Compound | AC50 [1] | pKi [2] | melting point | AC50 ([1]; Homo sapiens, MOLP-8, 2 h) |
| --- | --- | --- | --- | --- |
| Cc1c2c(nn1C)COCc1cc(n(C)n1)CCc1cc(c3ccccc3c1)OCCCc1c(C(=O)O)n(C)c3c-2c(Cl)ccc13 (single isomer, unassigned) [Compound 1] | 83.3 nM | 10.33 |  |  |
| Cc1c2c(nn1C)COCc1cc(n(C)n1)CCc1cc(c3ccccc3c1)OCCCc1c(C(=O)O)n(C)c3c-2c(Cl)ccc13 (single isomer, unassigned) [Compound 2] | 954 nM | 9.35 |  |  |
| Cc1c2c(nn1C)COCc1cc(n(C)n1)CSc1cc(c3ccccc3c1)OCCCc1c(C(=O)O)n(C)c3c-2c(Cl)ccc13 (single isomer, unassigned) [Compound 5] | 83.7 nM | 10.24 |  |  |
| Cc1c2c(nn1C)COCc1cc(n(C)n1)CSc1cc(c3ccccc3c1)OCCCc1c(C(=O)O)n(C)c3c-2c(Cl)ccc13 (single isomer, unassigned) [Compound 6] | 6640 nM | 7.93 |  |  |
| CCc1c2c(nn1C)COCc1cc(n(C)n1)CSc1cc(c3ccccc3c1)OCCCc1c(C(=O)O)n(C)c3c-2c(Cl)ccc13 (single isomer, unassigned) [Compound 7] | 83.7 nM | 10.26 | 269.16 °C |  |
| CCc1c2c(nn1C)COCc1cc(n(C)n1)CSc1cc(c3ccccc3c1)OCCCc1c(C(=O)O)n(C)c3c-2c(Cl)ccc13 (single isomer, unassigned) [Compound 8] | 5380 nM | 8.09 | 264.21 °C |  |
| Cc1c2c(nn1C)C(C)OCc1cc(n(C)n1)CSc1cc(c3ccccc3c1)OCCCc1c(C(=O)O)n(C)c3c-2c(Cl)ccc13 (single isomer, unassigned) [Compound 9] | 246 nM | 9.62 |  |  |
| Cc1c2c(nn1C)C(C)OCc1cc(n(C)n1)CSc1cc(c3ccccc3c1)OCCCc1c(C(=O)O)n(C)c3c-2c(Cl)ccc13 (single isomer, unassigned) [Compound 10] | 14700 nM | 7.70 |  |  |
| Cc1c2c(nn1C)C(C)OCc1cc(n(C)n1)CSc1cc(c3ccccc3c1)OCCCc1c(C(=O)O)n(C)c3c-2c(Cl)ccc13 (single isomer, unassigned) [Compound 11] | 18100 nM | 7.48 |  |  |
| Cc1c2c(nn1C)C(C)OCc1cc(n(C)n1)CSc1cc(c3ccccc3c1)OCCCc1c(C(=O)O)n(C)c3c-2c(Cl)ccc13 (single isomer, unassigned) [Compound 12] | 59.4 nM | 10.44 |  |  |
| Cc1c2c(nn1C)COCc1cc(n[nH]1)CSc1cc(c3ccccc3c1)OCCCc1c(C(=O)O)n(C)c3c-2c(Cl)ccc13 (single isomer, unassigned) [Compound 13] | 411 nM | 9.89 |  |  |
| Cc1c2c(nn1C)COCc1cc(n[nH]1)CSc1cc(c3ccccc3c1)OCCCc1c(C(=O)O)n(C)c3c-2c(Cl)ccc13 (single isomer, unassigned) [Compound 14] | 18000 nM | 7.67 |  |  |
| Cc1c2c(nn1C)COCc1cc(nn1CCN(C)C)CSc1cc(c3ccccc3c1)OCCCc1c(C(=O)O)n(C)c3c-2c(Cl)ccc13 (single isomer, unassigned) [Compound 15] |  | 9.95 |  | 388 nM |
| Cc1c2c(nn1C)COCc1cc(n(CCN(C)C)n1)CSc1cc(c3ccccc3c1)OCCCc1c(C(=O)O)n(C)c3c-2c(Cl)ccc13 (single isomer, unassigned) [Compound 16] |  | 10.14 |  | 185 nM |
| COCCOCCn1nc(C)c2c1COCc1cc(n(C)n1)CCc1cc(c3ccc(F)cc3c1)OCCCc1c(C(=O)O)n(C)c3c-2c(Cl)ccc13 (single isomer, unassigned) [Compound 17] | 7.4 nM | 10.60 |  |  |
| COCCOCCn1nc2c(c1C)-c1c(Cl)ccc3c(c(C(=O)O)n(C)c13)CCCOc1cc(cc3cc(F)ccc13)CCc1cc(nn1C)COC2 (single isomer, unassigned) [Compound 18] | 17.6 nM | 10.70 |  |  |
| COCCOCCn1nc(C)c2c1COCc1cc(n(C)n1)CCc1cc(c3ccc(F)cc3c1)OCCCc1c(C(=O)O)n(C)c3c-2c(Cl)ccc13 (single isomer, unassigned) [Compound 19] | 626 nM | 8.87 |  |  |
| COCCOCCn1nc2c(c1C)-c1c(Cl)ccc3c(c(C(=O)O)n(C)c13)CCCOc1cc(cc3cc(F)ccc13)CCc1cc(nn1C)COC2 (single isomer, unassigned) [Compound 20] | 3450 nM | 8.38 |  |  |
